Here are results for twelve compounds from patent US9938273B2 (Plexxikon Inc., priority 2015, dated 2018).

Assay [1] deals with T1, FLT3-ITD (Homo sapiens, UniProt P36888).
T1 sequence (P36888 1-993): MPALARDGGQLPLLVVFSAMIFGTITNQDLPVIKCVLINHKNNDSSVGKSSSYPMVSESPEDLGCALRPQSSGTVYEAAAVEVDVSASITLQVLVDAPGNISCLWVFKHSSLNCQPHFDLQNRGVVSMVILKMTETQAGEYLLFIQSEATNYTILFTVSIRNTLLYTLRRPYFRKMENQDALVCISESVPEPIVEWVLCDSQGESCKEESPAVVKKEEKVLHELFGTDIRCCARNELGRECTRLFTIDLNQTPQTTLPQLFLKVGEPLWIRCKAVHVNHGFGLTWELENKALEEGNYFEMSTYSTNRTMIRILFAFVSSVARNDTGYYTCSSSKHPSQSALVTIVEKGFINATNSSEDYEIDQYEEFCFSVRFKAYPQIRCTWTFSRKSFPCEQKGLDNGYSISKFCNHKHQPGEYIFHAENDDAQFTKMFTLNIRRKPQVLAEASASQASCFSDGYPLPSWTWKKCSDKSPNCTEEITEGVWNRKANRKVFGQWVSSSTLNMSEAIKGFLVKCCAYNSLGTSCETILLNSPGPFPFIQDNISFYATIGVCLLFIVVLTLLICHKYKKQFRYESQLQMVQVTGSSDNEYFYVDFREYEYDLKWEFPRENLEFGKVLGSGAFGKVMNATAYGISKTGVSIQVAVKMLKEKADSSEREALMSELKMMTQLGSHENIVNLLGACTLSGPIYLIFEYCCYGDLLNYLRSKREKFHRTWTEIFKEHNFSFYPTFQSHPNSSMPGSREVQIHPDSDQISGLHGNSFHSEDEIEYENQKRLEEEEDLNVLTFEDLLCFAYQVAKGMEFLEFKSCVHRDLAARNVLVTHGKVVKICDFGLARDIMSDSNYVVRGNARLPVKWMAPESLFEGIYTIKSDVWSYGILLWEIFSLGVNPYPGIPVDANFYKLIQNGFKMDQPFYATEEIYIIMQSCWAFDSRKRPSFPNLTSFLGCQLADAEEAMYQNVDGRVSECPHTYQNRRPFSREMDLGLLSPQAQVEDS
The assay can be described thus: AlphaScreen kinase assay with recombinant enzyme, FLT3-ITD. The assay is classed as biochemical. The settings on record: 8pt; read-out: FLT3_ITD 8pt: IC50. Summed up: (§1)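 Read-out: AlphaScreen proximity signal at 580 nm (680 nm excitation), lost as peptide tyrosine phosphorylation falls. Substrate Biotin-GG(EEEEY)10EE at 30 nM; IC50 runs at 10 μM (FLT3 mutants) or 100 μM (c-KIT) final. Donor beads 20 min, then acceptor beads 60 min, room temperature.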
On the technique in general: Alpha assays give light when donor and acceptor beads are brought close together.

The target of assay [2] is T2, c-KIT (Homo sapiens, UniProt P10721).
T2 construct: purchased Millipore 14-559K
Put plainly: AlphaScreen kinase assay with recombinant enzyme, c-KIT. The assay is classed as biochemical. Conditions: 100ATP, 8pt, GMean. In a few lines:
as §1

T2 sequence (P10721 26-976): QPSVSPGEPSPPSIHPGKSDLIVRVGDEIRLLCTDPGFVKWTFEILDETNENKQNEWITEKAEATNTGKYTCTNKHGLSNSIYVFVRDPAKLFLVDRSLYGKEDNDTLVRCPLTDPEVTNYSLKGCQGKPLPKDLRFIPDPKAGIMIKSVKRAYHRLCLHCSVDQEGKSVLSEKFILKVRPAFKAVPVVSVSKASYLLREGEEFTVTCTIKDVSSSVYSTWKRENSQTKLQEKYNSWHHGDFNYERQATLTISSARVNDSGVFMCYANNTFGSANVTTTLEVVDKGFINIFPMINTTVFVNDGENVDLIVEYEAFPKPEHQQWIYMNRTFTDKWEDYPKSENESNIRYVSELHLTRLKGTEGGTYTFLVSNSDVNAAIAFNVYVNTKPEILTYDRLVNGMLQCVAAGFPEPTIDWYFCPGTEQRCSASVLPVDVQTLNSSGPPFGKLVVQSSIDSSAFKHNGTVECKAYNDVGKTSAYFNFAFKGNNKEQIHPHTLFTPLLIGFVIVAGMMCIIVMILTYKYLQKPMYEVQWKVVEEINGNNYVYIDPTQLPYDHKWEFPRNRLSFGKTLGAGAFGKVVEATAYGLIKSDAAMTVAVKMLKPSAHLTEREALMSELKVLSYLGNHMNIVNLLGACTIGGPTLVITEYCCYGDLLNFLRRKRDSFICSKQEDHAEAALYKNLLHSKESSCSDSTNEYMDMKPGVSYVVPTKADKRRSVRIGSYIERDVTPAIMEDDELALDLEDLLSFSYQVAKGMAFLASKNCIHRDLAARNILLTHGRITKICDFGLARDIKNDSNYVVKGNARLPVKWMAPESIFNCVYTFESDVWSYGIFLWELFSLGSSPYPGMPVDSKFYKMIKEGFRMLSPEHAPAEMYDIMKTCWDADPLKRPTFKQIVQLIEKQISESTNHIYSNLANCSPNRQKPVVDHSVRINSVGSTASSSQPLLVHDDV

For the compound `COC1CN(C(=O)c2cccc(-c3cnc4[nH]c(-c5ccccc5)cc4c3)n2)C1` [Compound P-0091, (3-methoxyazetidin-1-yl)-[6-(2-phenyl-1H-pyrrolo[2,3-b]pyridin-5-yl)-2-pyridyl]methanone], the figures for the IC50 in assay [1] and in assay [2] were 0.0001 to 10 µM and 50 to 100 µM, respectively.
On the same counts, the results for `CC1(C#N)CCN(C(=O)c2cccc(-c3cnc4[nH]c(-c5ccccc5)cc4c3)n2)CC1` [Compound P-0094, 4-methyl-1-[6-(2-phenyl-1H-pyrrolo[2,3-b]pyridin-5-yl)pyridine-2-carbonyl]piperidine-4-carbonitrile] are 0.0001 to 10 µM and 50 to 100 µM.
Turning to `COC1CCN(C(=O)c2cccc(-c3cnc4[nH]c(-c5ccccc5)cc4c3)n2)CC1` [Compound P-0098, (4-methoxy-1-piperidyl)-[6-(2-phenyl-1H-pyrrolo[2,3-b]pyridin-5-yl)-2-pyridyl]methanone], the IC50 (in general, the point on the concentration scale where inhibition reaches its midpoint) in assay [1] lay within 0.0001 to 10 µM; in assay [2] it was 50 to 100 µM.
Consider `CS(=O)(=O)NC1CCN(C(=O)c2cccc(-c3cnc4[nH]c(-c5ccccc5)cc4c3)n2)C1` (stereo not drawn) [Compound P-0101, N-[1-[6-(2-phenyl-1H-pyrrolo[2,3-b]pyridin-5-yl)pyridine-2-carbonyl]pyrrolidin-3-yl]methanesulfonamide], for which the IC50 in assay [1] was 0.0001 to 10 µM; in assay [2], 50 to 100 µM.
`O=C(c1cccc(-c2cnc3[nH]c(-c4ccccc4)cc3c2)n1)N1CCC(N2CCOCC2)C1` (stereo not drawn) [Compound P-0102, (3-morpholinopyrrolidin-1-yl)-[6-(2-phenyl-1H-pyrrolo[2,3-b]pyridin-5-yl)-2-pyridyl]methanone]: the 50% inhibitory concentration (IC50) lay in the range of 0.0001 to 10 µM in assay [1] and 50 to 100 µM in assay [2].
`O=C(c1cccc(-c2cnc3[nH]c(-c4ccccc4)cc3c2)n1)N1CCC(C(F)(F)F)C1` (stereo not drawn) [Compound P-0103, [6-(2-phenyl-1H-pyrrolo[2,3-b]pyridin-5-yl)-2-pyridyl]-[3-(trifluoromethyl)pyrrolidin-1-yl]methanone]: the IC50 was in the range of 0.0001 to 10 µM in assay [1] and 50 to 100 µM in assay [2].
As to `CN(C)C1CCN(C(=O)c2cccc(-c3cnc4[nH]c(-c5ccccc5)cc4c3)n2)C1` (stereo not drawn) [Compound P-0104, [3-(dimethylamino)pyrrolidin-1-yl]-[6-(2-phenyl-1H-pyrrolo[2,3-b]pyridin-5-yl)-2-pyridyl]methanone], the IC50 in assay [1] and in assay [2] was 0.0001 to 10 µM throughout.
Regarding `N#CC1CCN(C(=O)c2cccc(-c3cnc4[nH]c(-c5ccc(F)cc5)cc4c3)n2)C1` (stereo not drawn) [Compound P-0116, 1-[6-[2-(4-fluorophenyl)-1H-pyrrolo[2,3-b]pyridin-5-yl]pyridine-2-carbonyl]pyrrolidine-3-carbonitrile], the half-inhibitory concentration (IC50) in assay [1] and in assay [2] was 0.0001 to 10 µM throughout.
Consider `CC(C)(C#N)NC(=O)c1cccc(-c2cnc3[nH]c(-c4ccc(C(F)(F)F)nc4)cc3c2)n1` [Compound P-0201, N-(1-cyano-1-methyl-ethyl)-6-[2-[6-(trifluoromethyl)-3-pyridyl]-1H-pyrrolo[2,3-b]pyridin-5-yl]pyridine-2-carboxamide], for which the 50% inhibitory concentration (IC50) was 0.0001 to 10 µM in assay [1] and 50 to 100 µM in assay [2].
As to `CC(C)(C#N)NC(=O)c1cccc(-c2cnc3[nH]c(-c4cnc(C(F)(F)F)nc4)cc3c2)n1` [Compound P-0204, N-(1-cyano-1-methyl-ethyl)-6-[2-[2-(trifluoromethyl)pyrimidin-5-yl]-1H-pyrrolo[2,3-b]pyridin-5-yl]pyridine-2-carboxamide], the IC50 was in the range of 0.0001 to 10 µM in assay [1] and 50 to 100 µM in assay [2].
The corresponding values for `CC(C)(C#N)NC(=O)c1cccc(-c2cnc3[nH]c(-c4ccc(F)nc4)cc3c2)n1` [Compound P-0208, N-(1-cyano-1-methyl-ethyl)-6-[2-(6-fluoro-3-pyridyl)-1H-pyrrolo[2,3-b]pyridin-5-yl]pyridine-2-carboxamide] are 0.0001 to 10 µM and 50 to 100 µM.
As to `CC(C)(C#N)NC(=O)c1cccc(-c2cnc3[nH]c(-c4cnc(C(C)(C)O)nc4)cc3c2)n1` [Compound P-0211, N-(1-cyano-1-methyl-ethyl)-6-[2-[2-(1-hydroxy-1-methyl-ethyl)pyrimidin-5-yl]-1H-pyrrolo[2,3-b]pyridin-5-yl]pyridine-2-carboxamide], the IC50 in assay [1] lay within 0.0001 to 10 µM; in assay [2], 50 to 100 µM.
